Key:
[1] = test system: Jurkat; test: metabolic activity relative to DMSO, 18 h (ratio); higher = more viable
Procedure, shortened: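 Jurkat or primary CD4+/CD8+ T cells (naive, or activated 48 h with CD3/CD28 Dynabeads) were treated 18 h with compound at 1 nM–10 µM (log10 steps) at 37 °C, 5% CO2. Then 100 µl of suspension went into 96-well plates with alamarBlue (10% v/v final). After 3.5 h, fluorescence was read on a FluoStar Omega (excitation 544 nm, emission 584 nm). Metabolic activity is normalised to mean DMSO controls.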

[2] = test system: Jurkat; test: cytotoxicity relative to DMSO, 18 h (ratio); higher = less cell death (drugs called cytotoxic fall below 1)
Procedure, shortened: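 Jurkat cells or primary CD4+/CD8+ T cells, either naive or activated for 48 h with CD3/CD28 Dynabeads, were exposed to compound from 1 nM to 10 µM in log10 steps for 18 h at 37 °C, 5% CO2. Aliquots of 100 µl of suspension were then moved to 96-well plates containing IncuCyte Cytotox Dye at 250 nM final. Cytotoxicity was read by IncuCyte fluorescence imaging, with signals corrected for confluency and normalised to the mean of control wells.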

[3] = test system: Jurkat; test: confluency relative to DMSO, 18 h (ratio); higher = more viable
Procedure, shortened: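 Jurkat cells and primary CD4+/CD8+ T cells, naive or activated with CD3/CD28 Dynabeads for 48 h, were treated with compound (1 nM–10 µM, log10 steps) for 18 h at 37 °C. Following transfer of 100 µl into 96-well plates with IncuCyte Cytotox Dye and alamarBlue, wells were imaged at ×10, five images per well, each hour for 3 h. Confluency, obtained with the IncuCyte Basic Analyzer from phase-contrast images, is normalised to the mean of the control wells.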

Structure (SMILES) | metabolic activity ([1]; 1 nM) | metabolic activity ([1]; 10 nM) | metabolic activity ([1]; 100 nM) | metabolic activity ([1]; 1000 nM) | metabolic activity ([1]; 10000 nM) | cytotoxicity ([2]; 1 nM) | cytotoxicity ([2]; 10 nM) | cytotoxicity ([2]; 100 nM) | cytotoxicity ([2]; 1000 nM) | cytotoxicity ([2]; 10000 nM) | confluency ([3]; 1 nM) | confluency ([3]; 10 nM) | confluency ([3]; 100 nM) | confluency ([3]; 1000 nM) | confluency ([3]; 10000 nM)
Nc1ccccc1NC(=O)c1ccc(CNC(=O)OCc2cccnc2)cc1 [Entinostat] | 0.904 | 0.811 | 0.957 | 0.923 | 0.727 | 1.09 | 0.937 | 0.912 | 0.891 | 1.01 | 1.04 | 0.967 | 0.939 | 0.906 | 0.947
CC(C=CC(=O)NO)=CC(C)C(=O)c1ccc(N(C)C)cc1 (stereo not given) [Trichostatin-A] | 1.21 | 1.17 | 1.17 | 0.97 | 0.904 | 1.27 | 1.25 | 1.22 | 1.06 | 0.98 | 0.999 | 1.03 | 1.03 | 0.99 | 0.96
COc1cc(OC)c2c(=O)[nH]c(-c3cc(C)c(OCCO)c(C)c3)nc2c1 [Apabetalone] | 0.842 | 0.904 | 0.962 | 0.952 | 0.932 | 1.06 | 1.08 | 1.01 | 1.04 | 1.01 | 1.08 | 1.11 | 1.04 | 1.08 | 1.1
CCn1c(=O)c(-c2ccn[nH]2)cc2c(C)nc(N)nc21 [Voxtalisib] | 1.05 | 1.02 | 0.993 | 0.924 | 1 | 0.985 | 0.977 | 0.966 | 0.943 | 1.02 | 1 | 1.01 | 1.02 | 1.02 | 1.04
Cn1cc(-c2nc(NC3CCCCC3N)c(F)c3c2C(=O)NC3)cn1 (stereo not given) [TAK-659] | 1.07 | 1.12 | 0.932 | 0.867 | 0.955 | 0.994 | 1.11 | 0.902 | 0.949 | 0.883 | 0.984 | 1.04 | 0.979 | 0.946 | 0.896
O=C(O)C1(C(=O)O)CCC1.[NH2-].[NH2-].[Pt+2] [Carboplatin] | 0.863 | 0.781 | 0.818 | 0.83 | 0.819 | 0.95 | 1.07 | 0.984 | 0.993 | 0.905 | 0.969 | 0.997 | 0.974 | 0.995 | 0.951
Nc1nc2[nH]cc(CCc3ccc(C(=O)NC(CCC(=O)O)C(=O)O)cc3)c2c(=O)[nH]1 (stereo not given) [Pemetrexed] | 1.02 | 1.11 | 1.06 | 1.09 | 0.853 | 0.992 | 0.997 | 0.837 | 0.821 | 0.75 | 1 | 0.962 | 0.845 | 0.839 | 0.835
CC(C)CC(NC(=O)CNC(=O)c1cc(Cl)ccc1Cl)B(O)O (stereo not given) [Ixazomib] | 0.928 | 1.04 | 0.924 | 0.382 | 0.121 | 0.958 | 1 | 1.03 | 0.682 | 0.631 | 0.945 | 0.97 | 1.12 | 0.922 | 1.09
O=C1C=CC(=O)C2=C1C1c3ccccc3C2c2ccccc21 [NFAT activation inhibitor III] | 1.04 | 1.04 | 1.12 | 1.01 | 0.834 | 0.945 | 0.784 | 0.732 | 1.04 | 0.839 | 1 | 0.877 | 0.804 | 0.97 | 0.864
Nc1cccc2c1CN(C1CCC(=O)NC1=O)C2=O (stereo not given) [Lenalidomide] | 0.931 | 0.895 | 0.809 | 0.905 | 0.96 | 0.945 | 0.905 | 0.96 | 0.912 | 0.892 | 0.996 | 0.912 | 0.993 | 0.96 | 0.93
CC12C=CC(=O)C=C1CCC1C2C(=O)CC2(C)C1CCC2(O)C(=O)CO (stereo not given) [Prednisone] | 0.872 | 0.991 | 1.07 | 1.04 | 1.15 | 0.964 | 1.01 | 1.02 | 1.05 | 1.21 | 1.01 | 0.981 | 0.993 | 1.01 | 1.02
O=C(CCCCCCNC(=O)c1cnc(N(c2ccccc2)c2ccccc2)nc1)NO [Ricolinostat] | 0.874 | 0.881 | 0.933 | 0.841 | 0.655 | 1.01 | 0.933 | 1.07 | 0.969 | 0.881 | 1.01 | 1 | 1.03 | 0.976 | 0.984
Cn1cc(CNCC2CCN(c3ncc(C(=O)NO)cn3)CC2)c2ccccc21 [Quisinostat] | 0.876 | 1.04 | 0.875 | 0.688 | 0.667 | 0.816 | 1.07 | 0.897 | 0.958 | 0.908 | 0.847 | 0.918 | 0.963 | 1.02 | 0.957
N.N.[Cl][Pt][Cl] [Cisplatin] | 0.96 | 0.989 | 0.983 | 0.939 | 1.02 | 0.845 | 0.582 | 0.996 | 0.984 | 1.13 | 0.99 | 1.09 | 1.01 | 0.934 | 1.03
COc1cc(C)[nH]c(=O)c1CNC(=O)c1c(C)n(C(C)C2CCN(CC(F)(F)F)CC2)c2ccccc12 (stereo not given) [Lirametostat] | 1.01 | 1.02 | 1.01 | 1.02 | 0.856 | 1 | 1 | 1.03 | 0.972 | 0.892 | 1.01 | 1.03 | 1.02 | 0.984 | 0.929
